# Measured values from paper PMC10108392, “Rimonabant-Based Compounds Bearing Hydrophobic Amino Acid Derivatives as Cannabinoid Receptor Subtype 1 Ligands” (ACS Medicinal Chemistry Letters, 2023).
# Tests used:
# CB1R [1] = biological target: T1, CB1R (Rattus norvegicus, UniProt P20272); assay: Ligand stimulated [35S]GTPγS binding assay in rat brain membranes; assay type: biochemical; settings: for EC50 / CB1R functional profile (agonist / antagonist / inverse agonist): rat brain membranes; for EC50: ± SEM, read-out: [35S]GTPγS stimulation EC50; for CB1R functional profile (agonist / antagonist / inverse agonist): from [35S]GTPγS binding; for Emax: read-out: [35S]GTPγS stimulation Emax
# T1 construct: Crude membrane fractions were prepared from the brain; from tissue; host or cells: Wistar rat whole brain, crude membrane fraction
# T1 sequence (P20272 whole entry): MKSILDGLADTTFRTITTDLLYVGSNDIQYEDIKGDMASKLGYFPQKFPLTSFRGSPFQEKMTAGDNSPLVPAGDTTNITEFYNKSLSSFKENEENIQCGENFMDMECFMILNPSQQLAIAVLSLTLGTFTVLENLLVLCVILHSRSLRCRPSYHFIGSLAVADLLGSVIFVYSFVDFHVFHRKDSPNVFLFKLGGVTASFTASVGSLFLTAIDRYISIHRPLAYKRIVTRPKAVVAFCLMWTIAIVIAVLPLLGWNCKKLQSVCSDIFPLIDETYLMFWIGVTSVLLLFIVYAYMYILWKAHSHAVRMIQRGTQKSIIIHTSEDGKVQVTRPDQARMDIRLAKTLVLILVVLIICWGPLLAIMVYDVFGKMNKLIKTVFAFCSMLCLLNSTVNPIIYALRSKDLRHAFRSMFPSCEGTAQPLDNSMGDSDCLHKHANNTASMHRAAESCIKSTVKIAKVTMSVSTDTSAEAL
# Procedure: (§1) Our novel chemical compounds were tested in vitro for their binding ability, efficacy, and potency on CB1R in rat brain membrane homogenate (Table 2 and SI, Figure S1). CB1Rs are the most abundant G-protein coupled receptors in the rodent and mammalian brain; therefore, this is an appropriate model to characterize our ligands in a more physiological system.
# (§2) In Vitro Biological Assays
# (§3) Preparation of Brain Membrane Homogenates
# Wistar rats were locally bred and handled according to the EU Directive 2010/63/EU and to the Regulations on Animal Protection (40/2013. (II. 14.) Korm. r.) of Hungary. Crude membrane fractions were prepared from the brain. Brains were quickly removed from the euthanized rats and directly put in an ice-cold 50 mM Tris-HCl buffer (pH 7.4). The collected tissue was then homogenized in 30 volumes (v/w) of an ice-cold buffer with a Braun Teflon-glass homogenizer at the highest rpm. The homogenate was centrifuged at 20,000 × g for 25 min, and the resulting pellet was suspended in the same volume of a cold buffer followed by incubation at 37 °C for 30 min to remove endogenous ligands. Centrifugation was then repeated. The final pellets were taken up in five volumes of a 50 mM Tris-HCl (pH 7.4) buffer containing 0.32 M sucrose and stored at -80 °C. Prior to the experiment, aliquots were thawed and centrifuged at 20,000 ×g for 25 min and then they were resuspended in 50 mM Tris-HCl (pH 7.4), homogenized with a Douncer, followed by the determination of the protein concentration by the method of Bradford. The membrane suspensions were immediately used either in radioligand binding experiments or in [35S]GTPγS functional assays. […]
# (§4) was terminated by diluting the samples with an ice-cold wash buffer (50 mM of Tris-HCl, 2.5 mM of EGTA, 5 mM of MgCl2, 0.5% fatty acid free BSA, pH 7.4), followed by repeated washing and rapid filtration through Whatman GF/B glass fiber filters (Whatman Ltd., Maidstone, UK) pre-soaked with 0.1% polyethyleneimine (30 min before the filtration). Filtration was performed with a 24-well Brandel Cell Harvester (Gaithersburg, MD, USA). Filters were air-dried and immersed into Ultima Gold MV scintillation cocktail, and then radioactivity was measured with a TRI-CARB 2100TR liquid scintillation analyzer (Packard, Perkin Elmer, Waltham, MA, USA).
# Ligand Stimulated [35S]GTPγS Binding Assay
# Rat brain membranes (30 µg protein/tube), prepared as described above, were incubated with 0.05 nM of […]
# mM of NaCl, 3 mM of MgCl2 and 1 mM of EGTA in a 50 mM Tris-HCl buffer (pH 7.4) for 60 min at 30 °C. Basal [35S]GTPγS binding was measured in the absence of ligands and set as 100%. Nonspecific […]
# binding was determined by the addition of 10 µM unlabelled GTPγS and subtracted from total binding.
# Incubation, filtration and radioactivity measurements of the samples were carried out as described above. […]
# All […]
# data and curves were analyzed by GraphPad Prism 5.0 (San Diego, CA, USA).
# CB1R [2] = biological target: T1, CB1R; assay: [3H]WIN55,212-2 radioligand competition binding assay in rat brain membrane homogenate; settings: for Ki [3H]WIN55,212-2 binding: 5 nM [3H]WIN55,212-2, ± SEM, n.b. = no binding of ligands was observed; for Ki: read-out: Ki [3H]WIN55,212-2 binding, 5 nM [3H]WIN55,212-2, ± SEM, n.b. = no binding of ligands was observed
# Procedure: as §1, §2, §3
# Wistar rats were locally bred and handled according to the EU Directive 2010/63/EU and to the Regulations on Animal Protection (40/2013. (II. 14.) Korm. r.) of Hungary. Crude membrane fractions were prepared from the brain. Brains were quickly removed from the euthanized rats and directly put in an ice-cold 50 mM Tris-HCl buffer (pH 7.4). The collected tissue was then homogenized in 30 volumes (v/w) of an ice-cold buffer with a Braun Teflon-glass homogenizer at the highest rpm. The homogenate was centrifuged at 20,000 × g for 25 min, and the resulting pellet was suspended in the same volume of a cold buffer followed by incubation at 37 °C for 30 min to remove endogenous ligands. Centrifugation was then repeated. The final pellets were taken up in five volumes of a 50 mM Tris-HCl (pH 7.4) buffer containing 0.32 M sucrose and stored at -80 °C. Prior to the experiment, aliquots were thawed and centrifuged at 20,000 ×g for 25 min and then they were resuspended in 50 mM Tris-HCl (pH 7.4), homogenized with a Douncer, followed by the determination of the protein concentration by the method of Bradford. The membrane suspensions were immediately used either in radioligand binding experiments or in [35S]GTPγS functional assays.
# Radioligand Competition Binding Assay
# Binding experiments were performed at 30 °C for 60 min in a 50 mM Tris-HCl binding buffer (pH 7.4) containing 2.5 mM of EGTA, 5 mM of MgCl2 and 0.5 mg/mL of fatty acid-free BSA in plastic tubes in a total assay volume of 1 mL that contained 0.3-0.5 mg/mL of a membrane protein. Competition binding […]
# ligands. […] The incubation […]
# as §4, with “MA, USA). […]” for “MA, USA).”
# The results of the competition binding studies are reported as means ± S.E.M. of at least three independent experiments each performed in duplicate. In competition binding studies, the inhibitory constants (Ki) were calculated from the inflection points of the displacement curves using non-linear least-square curve fitting and the Cheng-Prusoff equation, Ki= […]/(1 + [ligand]/Kd). […]
Structure (SMILES),EC50 (CB1R [1]) [µM],"Ki [3H]WIN55,212-2 binding (CB1R [2])",Ki (CB1R [2]) [µM],CB1R functional profile (agonist / antagonist / inverse agonist) (CB1R [1]),Emax (CB1R [1]) [%]
"CC(C)(C)[C@H](NC(=O)c1cc(-n2cccc2)n(-c2ccc(Cl)cc2)n1)C(=O)O [Compound 2, RS2689-tLeu-OH]",0.712 ± 0.018,n.b.,–,–,–
"CC(C)(C)[C@H](NC(=O)c1cc(-n2cccc2)n(-c2ccc(Cl)cc2)n1)C(N)=O [Compound 12, RS2689-tLeu-NH2]",–,–,0.102 ± 0.016,–,–
"CC(C)[C@H](NC(=O)c1cc(-n2cccc2)n(-c2ccccc2)n1)C(N)=O [Compound 15, RS2708-Val-NH2]",1.23 ± 0.121,n.b.,–,–,–
"CNC(=O)[C@@H](NC(=O)c1cc(-n2cccc2)n(-c2ccc(Cl)cc2)n1)C(C)(C)C [Compound 32, RS2689-tLeu-NHCH3]",0.389 ± 0.051,–,0.042 ± 0.0029,agonist,120 ± 2
"Cc1c(C(=O)N[C@H](C(=O)O)C(C)C)nn(-c2ccccc2)c1-n1cccc1 [Compound 7, RS2709-Val-OH]",2.55 ± 0.106,n.b.,–,–,–
"CC(C)[C@H](NC(=O)c1cc(-n2cccc2)n(-c2ccc(Cl)cc2)n1)C(N)=O [Compound 11, RS2689-Val-NH2]",1.16 ± 0.079,–,0.341 ± 0.019,–,–
"CNC(=O)[C@@H](NC(=O)c1nn(-c2ccccc2)c(-n2cccc2)c1C)C(C)C [Compound 37, RS2709-Val-NHCH3]",7.08 ± 0.398,modest affinity,1.06 ± 0.085,weak inverse agonist,55 ± 9
"COC(=O)[C@@H](NC(=O)c1nn(-c2ccc(Cl)cc2Cl)c(-n2cccc2Cl)c1C)C(C)(C)C [Compound 30, RS3516-tLeu-OCH3]",4.39 ± 0.344,–,0.021 ± 0.0044,–,–
"COC(=O)[C@@H](NC(=O)c1nn(-c2ccccc2)c(-n2cccc2)c1C)C(C)C [Compound 27, RS2709-Val-OCH3]",2.08 ± 0.129,–,0.449 ± 0.015,–,–
"CNC(=O)[C@@H](NC(=O)c1nn(-c2ccc(Cl)cc2Cl)c(-n2cccc2Cl)c1C)C(C)C [Compound 39, RS3516-Val-NHCH3]",3.54 ± 0.193,modest affinity,0.185 ± 0.017,weak inverse agonist,–
"CNC(=O)[C@@H](NC(=O)c1nn(-c2ccc(Cl)cc2Cl)c(-n2cccc2Cl)c1C)C(C)(C)C [Compound 40, RS3516-tLeu-NHCH3]",0.237 ± 0.045,n.b.,–,–,–
"Cc1c(C(=O)N[C@H](C(=O)O)C(C)(C)C)nn(-c2ccccc2)c1-n1cccc1 [Compound 8, RS2709-tLeu-OH]",3.4 ± 0.118,n.b.,–,–,–
"Cc1c(C(=O)N[C@H](C(=O)O)C(C)C)nn(-c2ccc(Cl)cc2Cl)c1-n1cccc1Cl [Compound 9, RS3516-Val-OH]",3.43 ± 0.283,n.b.,–,–,–
"CC(C)[C@H](NC(=O)c1cc(-n2cccc2)n(-c2ccccc2)n1)C(=O)O [Compound 5, RS2708-Val-OH]",1.65 ± 0.075,n.b.,–,–,–
"Cc1c(C(=O)N[C@H](C(N)=O)C(C)C)nn(-c2ccccc2)c1-n1cccc1 [Compound 17, RS2709-Val-NH2]",4.24 ± 0.377,–,1.06 ± 0.072,–,–
"CNC(=O)[C@@H](NC(=O)c1cc(-n2cccc2)n(-c2ccccc2)n1)C(C)C [Compound 35, RS2708-Val-NHCH3]",2.46 ± 0.24,modest affinity,7.95 ± 0.266,weak inverse agonist,–
"CC(C)(C)[C@H](NC(=O)c1cc(-n2cccc2)n(-c2ccccc2)n1)C(N)=O [Compound 16, RS2708-tLeu-NH2]",0.295 ± 0.038,–,1.47 ± 0.103,–,–
"COC(=O)[C@@H](NC(=O)c1nn(-c2ccc(Cl)cc2)c(-n2cccc2)c1C)C(C)C [Compound 23, RS2691-Val-OCH3]",4.87 ± 0.225,–,0.055 ± 0.0052,–,–
"CC(C)(C)[C@H](NC(=O)c1cc(-n2cccc2)n(-c2ccccc2)n1)C(=O)O [Compound 6, RS2708-tLeu-OH]",2.45 ± 0.118,n.b.,–,–,–
"Cc1c(C(=O)N[C@H](C(N)=O)C(C)C)nn(-c2ccc(Cl)cc2)c1-n1cccc1 [Compound 13, RS2691-Val-NH2]",–,–,0.123 ± 0.013,–,–
"CNC(=O)[C@@H](NC(=O)c1cc(-n2cccc2)n(-c2ccccc2)n1)C(C)(C)C [Compound 36, RS2708-tLeu-NHCH3]",–,–,0.616 ± 0.016,antagonists,–
"COC(=O)[C@@H](NC(=O)c1nn(-c2ccccc2)c(-n2cccc2)c1C)C(C)(C)C [Compound 28, RS2709-tLeu-OCH3]",1.03 ± 0.117,–,0.369 ± 0.019,–,55 ± 5
"Cc1c(C(=O)N[C@H](C(=O)O)C(C)(C)C)nn(-c2ccc(Cl)cc2Cl)c1-n1cccc1Cl [Compound 10, RS3516-tLeu-OH]",1.65 ± 0.098,n.b.,–,–,–
"CC(C)[C@H](NC(=O)c1cc(-n2cccc2)n(-c2ccc(Cl)cc2)n1)C(=O)O [Compound 1, RS2689-Val-OH]",5.87 ± 0.372,n.b.,–,–,–
"CNC(=O)[C@@H](NC(=O)c1cc(-n2cccc2)n(-c2ccc(Cl)cc2)n1)C(C)C [Compound 31, RS2689-Val-NHCH3]",0.601 ± 0.021,modest affinity,0.387 ± 0.033,weak inverse agonist,–
